Measurements reported in ChEMBL document CHEMBL4316596, “Antimicrobial Peptides with High Proteolytic Resistance for Combating Gram-Negative Bacteria” (J Med Chem, 2019).
Positions of bridges follow the written chain, without caps; N, C: chain ends. Non-standard residues stand in square brackets, D forms with d. Residues, ends and D or L forms follow the SMILES beside them. *: point of attachment. X1 = CC[C@H](C)CCCCC(=O)*; Dab = NCC[C@H](N)C(=O)O

How the values were obtained:
Klebsiella pneumoniae [1] = assay: Antimicrobial activity against Klebsiella pneumoniae after 24 hrs by NCCLS-protocol based assay; format: functional
Escherichia coli [2] = assay: Antimicrobial activity against Escherichia coli UB1005 after 24 hrs by NCCLS-protocol based assay; format: functional; conditions: UB1005, 24 h
Pseudomonas aeruginosa [3] = assay: Antimicrobial activity against Pseudomonas aeruginosa CICC 21625 clinical isolates after 24 hrs by NCCLS-protocol based assay; format: functional; conditions: CICC 21625, 24 h
Salmonella typhimurium [4] = assay: Antimicrobial activity against Salmonella typhimurium C7731 after 24 hrs by NCCLS-protocol based assay; format: functional, Salmonella enterica subsp. enterica serovar Typhimurium; conditions: Salmonella enterica, C7731, 24 h
Escherichia coli [5] = assay: Antimicrobial activity against Escherichia coli K99 after 24 hrs by NCCLS-protocol based assay; format: functional; conditions: K99, 24 h
Pseudomonas aeruginosa [6] = assay: Antimicrobial activity against Pseudomonas aeruginosa ATCC 27853 after 24 hrs by NCCLS-protocol based assay; format: functional; conditions: ATCC 27853, 24 h
[7] = Bactericidal activity against Salmonella pullorum C7913 incubated for 4 hrs followed by culture spread on agar plates and cultured overnight; format: functional, Salmonella enterica subsp. enterica serovar Pullorum; conditions: Salmonella enterica, C7913, 4 h; read-out: MBC>99.9
Escherichia coli [8] = assay: Bactericidal activity against Escherichia coli 078 incubated for 4 hrs followed by culture spread on agar plates and cultured overnight; format: functional; conditions: Escherichia coli, 078, 4 h; read-out: MBC>99.9
Acinetobacter baumannii [9] = assay: Antimicrobial activity against Acinetobacter baumannii after 24 hrs by NCCLS-protocol based assay; format: functional
Escherichia coli [10] = assay: Bactericidal activity against Escherichia coli K88 incubated for 4 hrs followed by culture spread on agar plates and cultured overnight; format: functional; conditions: K88, 4 h, read-out: MBC>99.9
[11] = Antimicrobial activity against Salmonella pullorum C7913 after 24 hrs by NCCLS-protocol based assay; format: functional, Salmonella enterica subsp. enterica serovar Pullorum; conditions: Salmonella enterica, C7913, 24 h
Escherichia coli [12] = assay: Antimicrobial activity against Escherichia coli 078 after 24 hrs by NCCLS-protocol based assay; format: functional; conditions: Escherichia coli, 078, 24 h
Pseudomonas aeruginosa [13] = assay: Bactericidal activity against Pseudomonas aeruginosa ATCC 27853 incubated for 4 hrs followed by culture spread on agar plates and cultured overnight; format: functional; conditions: ATCC 27853, 4 h, read-out: MBC>99.9
Escherichia coli [14] = assay: Antimicrobial activity against Escherichia coli K88 after 24 hrs by NCCLS-protocol based assay; format: functional; conditions: K88, 24 h
Salmonella typhimurium [15] = assay: Bactericidal activity against Salmonella typhimurium ATCC 14028 incubated for 4 hrs followed by culture spread on agar plates and cultured overnight; format: functional, Salmonella enterica subsp. enterica serovar Typhimurium; conditions: Salmonella enterica, ATCC 14028, 4 h; read-out: MBC>99.9
Escherichia coli [16] = assay: Bactericidal activity against Escherichia coli ATCC 25922 incubated for 4 hrs followed by culture spread on agar plates and cultured overnight; format: functional; conditions: ATCC 25922, 4 h, read-out: MBC>99.9
Pseudomonas aeruginosa [17] = assay: Antimicrobial activity against Pseudomonas aeruginosa PAO1 after 24 hrs by NCCLS-protocol based assay; format: functional; conditions: PAO1, 24 h
Escherichia coli [18] = assay: Antimicrobial activity against Escherichia coli ATCC 25922 after 24 hrs by NCCLS-protocol based assay; format: functional; conditions: ATCC 25922, 24 h
Escherichia coli [19] = assay: Bactericidal activity against Escherichia coli K99 incubated for 4 hrs followed by culture spread on agar plates and cultured overnight; format: functional; conditions: K99, 4 h, read-out: MBC>99.9
Pseudomonas aeruginosa [20] = assay: Bactericidal activity against Pseudomonas aeruginosa CICC 21630 clinical isolates incubated for 4 hrs followed by culture spread on agar plates and cultured overnight; format: functional; conditions: CICC 21630, 4 h, read-out: MBC>99.9
Pseudomonas aeruginosa [21] = assay: Antimicrobial activity against Pseudomonas aeruginosa 26305 clinical isolates after 24 hrs by NCCLS-protocol based assay; format: functional; conditions: Pseudomonas aeruginosa, 26305, 24 h
Klebsiella pneumoniae [22] = assay: Bactericidal activity against Klebsiella pneumoniae incubated for 4 hrs followed by culture spread on agar plates and cultured overnight; format: functional; conditions: read-out: MBC>99.9
Pseudomonas aeruginosa [23] = assay: Bactericidal activity against Pseudomonas aeruginosa 26305 clinical isolates incubated for 4 hrs followed by culture spread on agar plates and cultured overnight; format: functional; conditions: Pseudomonas aeruginosa, 26305, 4 h; read-out: MBC>99.9
Escherichia coli [24] = assay: Bactericidal activity against Escherichia coli UB1005 incubated for 4 hrs followed by culture spread on agar plates and cultured overnight; format: functional; conditions: UB1005, 4 h, read-out: MBC>99.9
Acinetobacter baumannii [25] = assay: Bactericidal activity against Acinetobacter baumannii incubated for 4 hrs followed by culture spread on agar plates and cultured overnight; format: functional; conditions: read-out: MBC>99.9
Pseudomonas aeruginosa [26] = assay: Bactericidal activity against Pseudomonas aeruginosa 25349 clinical isolates incubated for 4 hrs followed by culture spread on agar plates and cultured overnight; format: functional; conditions: Pseudomonas aeruginosa, 25349, 4 h; read-out: MBC>99.9
Pseudomonas aeruginosa [27] = assay: Bactericidal activity against Pseudomonas aeruginosa PAO1 incubated for 4 hrs followed by culture spread on agar plates and cultured overnight; format: functional; conditions: PAO1, 4 h, read-out: MBC>99.9
Pseudomonas aeruginosa [28] = assay: Bactericidal activity against Pseudomonas aeruginosa CICC 21625 clinical isolates incubated for 4 hrs followed by culture spread on agar plates and cultured overnight; format: functional; conditions: CICC 21625, 4 h, read-out: MBC>99.9
Pseudomonas aeruginosa [29] = assay: Antimicrobial activity against Pseudomonas aeruginosa CICC 21630 clinical isolates after 24 hrs by NCCLS-protocol based assay; format: functional; conditions: CICC 21630, 24 h
Salmonella typhimurium [30] = assay: Antimicrobial activity against Salmonella typhimurium ATCC 14028 after 24 hrs by NCCLS-protocol based assay; format: functional, Salmonella enterica subsp. enterica serovar Typhimurium; conditions: Salmonella enterica, ATCC 14028, 24 h
Salmonella typhimurium [31] = assay: Bactericidal activity against Salmonella typhimurium C7731 incubated for 4 hrs followed by culture spread on agar plates and cultured overnight; format: functional, Salmonella enterica subsp. enterica serovar Typhimurium; conditions: Salmonella enterica, C7731, 4 h; read-out: MBC>99.9
Pseudomonas aeruginosa [32] = assay: Antimicrobial activity against Pseudomonas aeruginosa 25349 clinical isolates after 24 hrs by NCCLS-protocol based assay; format: functional; conditions: Pseudomonas aeruginosa, 25349, 24 h

CC[C@H](C)CCCCC(=O)N[C@@H](CCN)C(=O)N[C@H](C(=O)N[C@@H](CCN)C(=O)N[C@H]1CCNC(=O)[C@H]([C@@H](C)O)NC(=O)[C@H](CCN)NC(=O)[C@H](CCN)NC(=O)[C@H](CC(C)C)NC(=O)[C@@H](Cc2ccccc2)NC(=O)[C@H](CCN)NC1=O)[C@@H](C)O (X1-[Dab]T[Dab][Dab][Dab][dF]L[Dab][Dab]T; lactam 4-C)
32 µM: MBC (Pseudomonas aeruginosa [27])
8 µM: MBC (Pseudomonas aeruginosa [20]) | MBC (Klebsiella pneumoniae [22]) | MBC (Pseudomonas aeruginosa [28])
0.5 µM: MIC95 (Escherichia coli [2]) | MIC95 [11] | MIC95 (Escherichia coli [14])
2 µM: MIC95 (Salmonella typhimurium [4]) | MIC95 (Escherichia coli [5]) | MIC95 (Pseudomonas aeruginosa [6]) | MBC (Escherichia coli [8]) | MBC (Pseudomonas aeruginosa [13]) | MBC (Escherichia coli [16]) | MBC (Escherichia coli [19]) | MIC95 (Salmonella typhimurium [30]) | MIC95 (Pseudomonas aeruginosa [32])
1 µM: MBC [7] | MBC (Escherichia coli [10]) | MIC95 (Escherichia coli [12]) | MIC95 (Escherichia coli [18]) | MBC (Escherichia coli [24])
4 µM: MIC95 (Klebsiella pneumoniae [1]) | MIC95 (Pseudomonas aeruginosa [3]) | MBC (Salmonella typhimurium [15]) | MIC95 (Pseudomonas aeruginosa [21]) | MBC (Pseudomonas aeruginosa [23]) | MBC (Pseudomonas aeruginosa [26]) | MIC95 (Pseudomonas aeruginosa [29]) | MBC (Salmonella typhimurium [31])
0.25 µM: MIC95 (Acinetobacter baumannii [9]) | MBC (Acinetobacter baumannii [25])
16 µM: MIC95 (Pseudomonas aeruginosa [17])

H-LRPLLRPLLRPLLRPL-NH2
> 64 µM: MIC95 (Klebsiella pneumoniae [1]) | MIC95 (Pseudomonas aeruginosa [6]) | MBC (Pseudomonas aeruginosa [13]) | MIC95 (Pseudomonas aeruginosa [17]) | MBC (Pseudomonas aeruginosa [20]) | MIC95 (Pseudomonas aeruginosa [21]) | MBC (Klebsiella pneumoniae [22]) | MBC (Pseudomonas aeruginosa [23]) | MBC (Pseudomonas aeruginosa [26]) | MBC (Pseudomonas aeruginosa [27]) | MBC (Pseudomonas aeruginosa [28]) | MIC95 (Pseudomonas aeruginosa [29]) | MIC95 (Pseudomonas aeruginosa [32])
2 µM: MIC95 (Acinetobacter baumannii [9])
64 µM: MIC95 (Pseudomonas aeruginosa [3]) | MIC95 (Salmonella typhimurium [4]) | MBC (Salmonella typhimurium [15]) | MBC (Salmonella typhimurium [31])
32 µM: MIC95 (Escherichia coli [2]) | MIC95 (Escherichia coli [5]) | MBC (Escherichia coli [19]) | MBC (Escherichia coli [24]) | MIC95 (Salmonella typhimurium [30])
8 µM: MBC (Escherichia coli [10]) | MIC95 [11] | MIC95 (Escherichia coli [14]) | MBC (Escherichia coli [16]) | MIC95 (Escherichia coli [18]) | MBC (Acinetobacter baumannii [25])
16 µM: MBC [7] | MBC (Escherichia coli [8]) | MIC95 (Escherichia coli [12])

H-IRPIIRPIIRPIIRPIIRPI-NH2
32 µM: MIC95 (Pseudomonas aeruginosa [6])
1 µM: MBC (Escherichia coli [10]) | MIC95 (Escherichia coli [14])
> 64 µM: MIC95 (Pseudomonas aeruginosa [3]) | MBC (Pseudomonas aeruginosa [20]) | MIC95 (Pseudomonas aeruginosa [21]) | MBC (Pseudomonas aeruginosa [23]) | MBC (Pseudomonas aeruginosa [26]) | MBC (Pseudomonas aeruginosa [28]) | MIC95 (Pseudomonas aeruginosa [29]) | MIC95 (Pseudomonas aeruginosa [32])
64 µM: MBC (Pseudomonas aeruginosa [13]) | MIC95 (Pseudomonas aeruginosa [17]) | MBC (Pseudomonas aeruginosa [27])
8 µM: MIC95 (Klebsiella pneumoniae [1]) | MBC [7] | MIC95 [11] | MIC95 (Escherichia coli [12]) | MBC (Salmonella typhimurium [15]) | MBC (Escherichia coli [16]) | MIC95 (Escherichia coli [18]) | MBC (Escherichia coli [24]) | MIC95 (Salmonella typhimurium [30])
4 µM: MIC95 (Escherichia coli [2]) | MIC95 (Escherichia coli [5]) | MIC95 (Acinetobacter baumannii [9]) | MBC (Escherichia coli [19]) | MBC (Acinetobacter baumannii [25])
16 µM: MIC95 (Salmonella typhimurium [4]) | MBC (Escherichia coli [8]) | MBC (Klebsiella pneumoniae [22]) | MBC (Salmonella typhimurium [31])
